Common to all, as to assay type: in vivo, SD rats
Assay [1] relates to rats with hyperuricemia. Kind of assay: Effect on blood uric acid level in rats with hyperuricemia (adenine combined with ethambutol model). As to conditions: for Blood uric acid: serum, 16 h fasting after last administration, mean±SD; for Uric acid reduction Percentage: versus model group. Here is the method: There were 80 Male SPF grade SD rats, weighing 200-220 g, were purchased from Beijing Vital River Laboratory Animal Technology Co., Ltd., license No. SCXK (Beijing) 2016-0006. The animals were housed in a barrier environment animal laboratory, with automatic temperature control (temperature 20-26° C.), relative humidity 40-70%, and full fresh air. Artificial light was adopted with a 12-hour light-dark cycle. Group experiments were started after 1 day of acclimatization. Animals were fed with standard rat pellet feed, provided by Beijing Keao Xieli Feed Co. Ltd., with purified water.
The rats were randomly divided into 10 groups of 8 rats each:
(1) negative control group (control group); (2) model group; (3) β-ecdysterone underdose group-1, 6 mg/kg; (4) β-ecdysterone underdose group-2, 12 mg/kg; (5) β-ecdysterone low dose group 25 mg/kg; (6) β-ecdysterone medium dose group 50 mg/kg; (7) β-ecdysterone high dose group 100 mg/kg; (8) β-ecdysterone overdose group 200 mg/kg; (9) allopurinol group 25 mg/kg; (10) benzbromarone group 25 mg/kg.
1.2 Establishment of Adenine Combined with Ethambutol-Induced Hyperuricemia Combined with Kidney Injury Model in Rats
Adenine was purchased from Sigma-Aldrich (USA), and 0.5% CMC-Na (sodium carboxymethyl cellulose) solution was used to formulate a suspension at a concentration of 20 mg/mL, ready-to-use, with an administration volume of 5 mL/kg and a dosage of 100 mg/kg. Ethambutol hydrochloride tablets were purchased from Chengdu Jinhua Pharmaceutical Co., Ltd, and 0.5% CMC-Na solution was used to formulate a suspension at a concentration of 50 mg/ml, ready-to-use, with an administration volume of 5 mL/kg and a dosage of 250 mg/kg. The modeling drug adenine 100 mg/kg and ethambutol 250 mg/kg were administered by gavage in the model group and the CQ group at each dose, from day 1, and both were administered once a day for a total of 7 days, to prepare a hyperuricemia rat model. An equal amount of 0.5% CMC-Na solution was administered by gavage in the control group at the relative time.
Observation and detection indicators: fasting for 16 hours after the last administration, blood was collected from the abdominal aorta of rats in each group, centrifuged at 3500 rpm for 15 minutes after standing, separated and collected serum, and the content of uric acid in the serum was measured using an Automatic Chemical Analysis.
Statistical methods: data were expressed as mean±standard deviation and analyzed by one-way ANOVA. Each administration group was compared with the model group separately.

The subject of assay [2] is rats with hyperuricemia. Nature of the assay: Kidney function biochemical indicators (serum BUN and SCr) in rats with hyperuricemia. As to conditions: for BUN / SCr: serum, mean±SD. An excerpt: The establishment of the model as well as the experimental grouping and administration were the same as in Example 1.
1.1 Kidney function biochemical indicators detection: the method of blood sampling and serum collection was the same as in Example 1, and an Automatic Chemical Analysis was used to detect the content of serum creatinine (SCr) by using the creatine oxidase method, and to detect the content of blood urea nitrogen (BUN) by using the urease method and the kinetic method. the effect of β-ecdysterone on the level of blood BUN and SCr of rats with hyperuricemia is shown in Table 2.

Assay [3] deals with rats with hyperuricemia. Nature of the assay: Urate deposition in rat kidney tissues (hexamine silver staining). Here is the method: (§1) The establishment of the model as well as the experimental grouping and administration were the same as in Example 1. 1.2 Pathological examination of kidney tissue: anesthetize rats, dissect, and remove kidney tissue. The kidney tissues were fixed with 10% neutral formalin. After sufficient fixation, sampling, gradient dehydration, xylene transparency, paraffin embedding, and preparation of 3 μm paraffin sections were performed according to routine procedures. The kidney tissue lesions as well as urate deposition in the kidney tissues were examined by light microscopy using, HE (hematoxylin & eosin) staining and hexamine silver staining, respectively. […] Among them, A in FIG. 1 and FIG. 2 is the control group, B is the model group, C and D are both β-ecdysterone underdose group, E is β-ecdysterone low dose group, F is β-ecdysterone medium dose group, G is β-ecdysterone high dose group, H is β-ecdysterone overdose group, I is allopurinol group, and J is benzbromarone group. The length unit in the lower right corner of the figure is 50 μm.

Assay [4] deals with rats with hyperuricemia. Kind of assay: Pathological examination of rat kidney tissue (HE staining). As to conditions: for pathology of kidney tissues: HE staining; for protective effect on kidney injury combined with hyperuricemia: overall conclusion from hexamine silver staining, biochemical and pathological results. Here is the method: as §1

SMILES strings stand for the structures.

For `Oc1ncnc2[nH]ncc12` [Allopurinol, allopurinol, reference compound], in the assay on rats with hyperuricemia [1] (25 mg/kg), the Blood uric acid turned out to be 109.11 ± 21.66 µmol/L and the “Uric acid reduction Percentage” value turned out to be 48.90%. In the assay with rats with hyperuricemia [2] (25 mg/kg), the BUN was 12.17 ± 3.03 mmol/L and the SCr is 48.16 ± 6.95 µmol/L. In the assay on rats with hyperuricemia [2] (positive drugs, 25 mg/kg), the “serum BUN level compared with the model group” value is “did not show significant differences” and the “serum SCr level compared with the model group” value was “did not show significant differences”. In the assay with rats with hyperuricemia [3] (positive drugs, 25 mg/kg), the “urate crystals deposition in kidney tissue” value (shortened to “urate crystals deposition”) was “significantly reduced”. For the same molecule, in the assay with rats with hyperuricemia [4] (25 mg/kg), the “pathology of kidney tissues” value is “severe renal tubules dilatation, tubular wall thinning, eosinophilic degeneration, and inflammatory cell infiltration were observed”. The “protective effect on kidney injury combined with hyperuricemia” value (“protective effect” for short) in the assay with rats with hyperuricemia [4] is on record as “did not have a significant protective effect”.

`CCc1oc2ccccc2c1C(=O)c1cc(Br)c(O)c(Br)c1` [Benzbromarone, benzbromarone, reference compound]: in the assay on rats with hyperuricemia [1] (25 mg/kg), the Blood uric acid was 112.53 ± 30.78 µmol/L and the “Uric acid reduction Percentage” value worked out at 44.37%. Besides, in the assay with rats with hyperuricemia [2] (25 mg/kg), the BUN is recorded as 10.91 ± 2.66 mmol/L and the SCr turned out to be 50.64 ± 7.92 µmol/L. Further, in the assay with rats with hyperuricemia [2] (positive drugs, 25 mg/kg), the “serum BUN level compared with the model group” value is recorded as “did not show significant differences” and the “serum SCr level compared with the model group” value is given as “did not show significant differences”. Also, the “urate crystals deposition” value with rats with hyperuricemia [3] (positive drugs, 25 mg/kg) is recorded as “significantly reduced”. Also, the “pathology of kidney tissues” value with rats with hyperuricemia [4] (25 mg/kg) was “severe renal tubules dilatation, tubular wall thinning, eosinophilic degeneration, and inflammatory cell infiltration were observed”. The “protective effect” value with rats with hyperuricemia [4] is reported as “did not have a significant protective effect”.

Consider `CC(C)(O)CC[C@@H](O)[C@](C)(O)[C@H]1CC[C@@]2(O)C3=CC(=O)[C@@H]4C[C@@H](O)[C@@H](O)C[C@]4(C)[C@H]3CC[C@]12C` [β-ecdysterone], for which the Blood uric acid in the assay on rats with hyperuricemia [1] (6 mg/kg) was found to be 154.76 ± 38.71 µmol/L; with rats with hyperuricemia [1] (12 mg/kg) it was 147.55 ± 39.28 µmol/L; with rats with hyperuricemia [1] (25 mg/kg), 117.91 ± 43.74 µmol/L; in the assay on rats with hyperuricemia [1] (50 mg/kg) it was 110.83 ± 25.02 µmol/L; with rats with hyperuricemia [1] (100 mg/kg), 120.19 ± 68.99 µmol/L; in the assay on rats with hyperuricemia [1] (200 mg/kg) it was 127.56 ± 61.77 µmol/L. Moreover, the “Uric acid reduction Percentage” value is listed as 4.98% in the assay on rats with hyperuricemia [1] (6 mg/kg); 10.10% in the assay on rats with hyperuricemia [1] (12 mg/kg); 37.78% in the assay with rats with hyperuricemia [1] (25 mg/kg); 46.58% in the assay on rats with hyperuricemia [1] (50 mg/kg); 35.17% in the assay on rats with hyperuricemia [1] (100 mg/kg); 27.36% with rats with hyperuricemia [1] (200 mg/kg). The “blood uric acid level compared to the model group” value in the assay on rats with hyperuricemia [1] (dose too low (underdose groups)) is “not significantly reduced”. Besides, the BUN in the assay on rats with hyperuricemia [2] (6 mg/kg) is on record as 11.34 ± 4.11 mmol/L; in the assay on rats with hyperuricemia [2] (12 mg/kg), 9.81 ± 3.76 mmol/L; with rats with hyperuricemia [2] (25 mg/kg), 7.36 ± 1.71 mmol/L; in the assay on rats with hyperuricemia [2] (50 mg/kg), 7.19 ± 1.00 mmol/L; in the assay on rats with hyperuricemia [2] (100 mg/kg) it was 7.84 ± 2.04 mmol/L; in the assay with rats with hyperuricemia [2] (200 mg/kg) it was 8.04 ± 3.96 mmol/L. Further, the SCr in the assay on rats with hyperuricemia [2] (6 mg/kg) is 51.72 ± 7.35 µmol/L; with rats with hyperuricemia [2] (12 mg/kg), 47.56 ± 6.11 µmol/L; in the assay on rats with hyperuricemia [2] (25 mg/kg), 40.73 ± 5.79 µmol/L; with rats with hyperuricemia [2] (50 mg/kg), 41.30 ± 4.08 µmol/L; with rats with hyperuricemia [2] (100 mg/kg), 42.15 ± 5.01 µmol/L; in the assay with rats with hyperuricemia [2] (200 mg/kg) it was 44.30 ± 5.21 µmol/L. The “serum BUN level compared with the model group” value is recorded as “significantly reduced” in the assay on rats with hyperuricemia [2] (after administration (p<0.01)), “only a slight decreasing trend” in the assay on rats with hyperuricemia [2] (dose too high) and “no significant difference” in the assay on rats with hyperuricemia [2] (dose too low). Further, the “serum SCr level compared with the model group” value with rats with hyperuricemia [2] (after administration (p<0.01)) is “significantly reduced”; with rats with hyperuricemia [2] (dose too high) it was “only a slight decreasing trend”; with rats with hyperuricemia [2] (dose too low), “no significant difference”. For the same molecule, the “urate crystals deposition” value was “most obvious effect” in the assay on rats with hyperuricemia [3] (50 mg/kg group); “significantly reduced” with rats with hyperuricemia [3] (after administration, versus model group); “no significant reduction” with rats with hyperuricemia [3] (lower dose). The “pathology of kidney tissues” value in the assay on rats with hyperuricemia [4] (25 mg/kg) is “tubular dilatation was reduced compared with that of the model group”; in the assay with rats with hyperuricemia [4] (high dose group 100 mg/kg) it was “tubular dilatation was reduced compared with that of the model group”; in the assay with rats with hyperuricemia [4] (medium dose group 50 mg/kg), “tubular dilatation was significantly reduced”; in the assay on rats with hyperuricemia [4] (overdose group 200 mg/kg) it was “mild tubular dilatation and tubular epithelial cell detachment, and tubular wall thinning in some of the tubules were observed locally”; with rats with hyperuricemia [4] (underdose group (6 and 12 mg/kg)), “severe tubular expansion, epithelial cell detachment, eosinophilic degeneration and inflammatory cell infiltration could still be observed”. Further, in the assay on rats with hyperuricemia [4], the “protective effect” value was “significant protective effect”.
